The values that follow come from US10568900B1, “Androgen effectors” (priority 2013, dated 2020).

Data set [1] deals with T1, human androgen receptor (hAR) (Homo sapiens, UniProt P10275).
T1 construct: expressed in transfected cells; host or cells: recombinant yeast strain BJ1991 PGKhAR
T1 sequence (P10275 1-920): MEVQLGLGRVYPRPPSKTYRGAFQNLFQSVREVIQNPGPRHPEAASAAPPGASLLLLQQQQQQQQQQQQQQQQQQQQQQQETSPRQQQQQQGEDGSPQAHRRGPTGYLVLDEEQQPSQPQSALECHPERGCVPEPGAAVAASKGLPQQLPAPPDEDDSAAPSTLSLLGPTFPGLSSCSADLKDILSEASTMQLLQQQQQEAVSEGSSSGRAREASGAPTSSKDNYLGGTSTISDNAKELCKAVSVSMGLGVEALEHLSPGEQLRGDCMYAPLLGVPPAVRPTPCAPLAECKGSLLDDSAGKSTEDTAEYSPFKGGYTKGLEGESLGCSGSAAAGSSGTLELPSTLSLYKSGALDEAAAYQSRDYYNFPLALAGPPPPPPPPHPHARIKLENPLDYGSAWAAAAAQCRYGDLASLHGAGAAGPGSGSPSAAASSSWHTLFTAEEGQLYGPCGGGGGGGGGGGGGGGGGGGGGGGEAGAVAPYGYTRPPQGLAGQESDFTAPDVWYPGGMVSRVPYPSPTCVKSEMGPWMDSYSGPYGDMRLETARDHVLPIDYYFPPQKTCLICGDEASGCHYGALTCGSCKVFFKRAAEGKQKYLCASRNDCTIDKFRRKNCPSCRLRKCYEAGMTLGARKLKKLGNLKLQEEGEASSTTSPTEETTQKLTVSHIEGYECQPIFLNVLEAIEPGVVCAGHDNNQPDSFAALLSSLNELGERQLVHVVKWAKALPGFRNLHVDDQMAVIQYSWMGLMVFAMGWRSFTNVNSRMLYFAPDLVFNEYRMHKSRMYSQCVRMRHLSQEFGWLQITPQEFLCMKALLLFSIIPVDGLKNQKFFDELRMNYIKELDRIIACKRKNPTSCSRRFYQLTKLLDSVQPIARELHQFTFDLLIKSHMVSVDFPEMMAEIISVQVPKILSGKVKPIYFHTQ
Nature of the data set: Human Androgen Receptor (hAR) assay in recombinant yeast strain BJ1991 PGKhAR. It is filed as cell-based. The text has this:
Human Androgen Receptor Assay (hAR) in recombinant yeast strain BJ1991 PGKhAR which contains the human androgen receptor (hAR) gene and a built-in color-indicator to androgenicity via an androgen response element (ARE) which is linked to a gene encoding beta-galactosidase, which hydrolyses end terminal B-galactopyranosyl residues on a chlorophenol red-B-D-galactopyranoside releasing colored indicator, chlorophenol red. Thus, test solutions turn further red with androgenicity.

For the next data set, the target named is T2, androgen receptor (AR) (Rattus norvegicus, UniProt P15207).
T2 construct: rat prostatic cytosol as a source of androgen receptors; from tissue; host or cells: rat prostate cytosol
T2 sequence (P15207 1-902): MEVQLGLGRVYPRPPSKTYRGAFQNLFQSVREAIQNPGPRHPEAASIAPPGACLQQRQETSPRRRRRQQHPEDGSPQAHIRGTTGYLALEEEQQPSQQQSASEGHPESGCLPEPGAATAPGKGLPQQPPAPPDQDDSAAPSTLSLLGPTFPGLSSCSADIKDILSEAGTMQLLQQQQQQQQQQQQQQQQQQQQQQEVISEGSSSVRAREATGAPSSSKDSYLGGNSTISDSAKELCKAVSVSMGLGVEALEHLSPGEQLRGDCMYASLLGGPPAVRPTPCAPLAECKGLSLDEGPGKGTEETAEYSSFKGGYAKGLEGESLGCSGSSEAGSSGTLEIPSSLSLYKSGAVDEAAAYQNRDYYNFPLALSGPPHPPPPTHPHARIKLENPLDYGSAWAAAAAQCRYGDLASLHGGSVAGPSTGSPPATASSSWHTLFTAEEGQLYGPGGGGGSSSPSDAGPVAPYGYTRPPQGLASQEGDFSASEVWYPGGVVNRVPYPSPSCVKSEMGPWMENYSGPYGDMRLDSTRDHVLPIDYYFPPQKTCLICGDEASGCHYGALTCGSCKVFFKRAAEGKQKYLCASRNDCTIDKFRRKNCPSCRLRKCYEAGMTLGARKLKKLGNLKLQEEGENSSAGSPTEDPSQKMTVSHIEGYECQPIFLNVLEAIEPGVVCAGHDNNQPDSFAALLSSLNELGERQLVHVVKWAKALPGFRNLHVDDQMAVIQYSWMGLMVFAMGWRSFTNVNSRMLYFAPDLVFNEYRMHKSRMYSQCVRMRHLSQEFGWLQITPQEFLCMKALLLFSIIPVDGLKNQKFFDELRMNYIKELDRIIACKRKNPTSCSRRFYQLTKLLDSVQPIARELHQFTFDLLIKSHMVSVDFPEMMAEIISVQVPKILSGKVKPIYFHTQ
Nature of the data set: Androgen Receptor Binding Assay (rat prostatic cytosol), displacement of radiolabeled testosterone. The text has this: The Androgen Receptor Binding Assay in rat prostatic cytosol as a source of androgen receptors identifies chemicals that have the potential to interact with the androgen receptor (AR) in vitro. […] The biological action of androgens is mediated through their interaction with the AR; androgens have no hormonal activity in the absence of a functional AR. Due to a high degree of DNA sequence conservation, substances that bind the AR from rats are presumed to be capable of binding the AR in humans. (Kelce, 1998; Betney, 2003). This screening assay measures the receptor-binding affinity of chemicals by evaluating their ability to displace a bound reference androgen, showing the degree of competition for normal androgen binding and activity, either acting as an agonist or antagonist (which is not discerned by the assay).

In the next data set the target is T3, 5-alpha-reductase (Rattus norvegicus, UniProt P24008).
T3 construct: in microsomal homogenized rat livers; from tissue; host or cells: rat liver microsomes
T3 sequence (P24008 1-259): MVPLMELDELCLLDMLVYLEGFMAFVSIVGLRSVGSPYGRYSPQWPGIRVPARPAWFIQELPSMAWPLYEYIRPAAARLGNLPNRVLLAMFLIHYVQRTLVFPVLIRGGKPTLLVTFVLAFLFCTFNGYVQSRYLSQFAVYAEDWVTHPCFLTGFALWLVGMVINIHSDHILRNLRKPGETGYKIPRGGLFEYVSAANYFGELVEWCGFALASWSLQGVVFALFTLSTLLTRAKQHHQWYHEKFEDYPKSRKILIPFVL
Nature of the data set: 5-alpha-reductase activity, conversion of testosterone to dihydrotestosterone in microsomal homogenized rat livers. Type of data set: biochemical. The text has this:
Finasteride (MK906 or Proscar) was used as the positive control inhibitor.

The next data set has as its target T4, ERα (Homo sapiens, UniProt P03372).
T4 construct: host or cells: yeast cells (cited work)
T4 sequence (P03372 1-595): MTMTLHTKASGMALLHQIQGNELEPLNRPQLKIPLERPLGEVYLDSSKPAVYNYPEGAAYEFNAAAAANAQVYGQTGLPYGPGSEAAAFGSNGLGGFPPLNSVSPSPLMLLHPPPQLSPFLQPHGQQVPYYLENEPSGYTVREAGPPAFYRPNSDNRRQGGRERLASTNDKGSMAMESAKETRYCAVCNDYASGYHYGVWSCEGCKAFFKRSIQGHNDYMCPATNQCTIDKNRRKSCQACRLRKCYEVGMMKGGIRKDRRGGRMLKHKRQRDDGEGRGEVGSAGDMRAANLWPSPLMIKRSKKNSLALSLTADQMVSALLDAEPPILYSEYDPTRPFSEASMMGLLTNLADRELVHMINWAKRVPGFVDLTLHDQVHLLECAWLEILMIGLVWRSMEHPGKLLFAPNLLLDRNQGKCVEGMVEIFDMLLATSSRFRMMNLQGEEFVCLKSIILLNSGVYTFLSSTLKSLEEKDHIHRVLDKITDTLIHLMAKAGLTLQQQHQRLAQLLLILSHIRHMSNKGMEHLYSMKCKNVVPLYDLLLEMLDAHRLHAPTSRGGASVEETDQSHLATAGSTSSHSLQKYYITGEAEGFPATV
The following applies: cited from earlier work.

In a further data set the target is T5, ERβ (Homo sapiens, UniProt Q92731).
T5 construct: host or cells: yeast cells (cited work)
T5 sequence (Q92731 whole entry, species assumed): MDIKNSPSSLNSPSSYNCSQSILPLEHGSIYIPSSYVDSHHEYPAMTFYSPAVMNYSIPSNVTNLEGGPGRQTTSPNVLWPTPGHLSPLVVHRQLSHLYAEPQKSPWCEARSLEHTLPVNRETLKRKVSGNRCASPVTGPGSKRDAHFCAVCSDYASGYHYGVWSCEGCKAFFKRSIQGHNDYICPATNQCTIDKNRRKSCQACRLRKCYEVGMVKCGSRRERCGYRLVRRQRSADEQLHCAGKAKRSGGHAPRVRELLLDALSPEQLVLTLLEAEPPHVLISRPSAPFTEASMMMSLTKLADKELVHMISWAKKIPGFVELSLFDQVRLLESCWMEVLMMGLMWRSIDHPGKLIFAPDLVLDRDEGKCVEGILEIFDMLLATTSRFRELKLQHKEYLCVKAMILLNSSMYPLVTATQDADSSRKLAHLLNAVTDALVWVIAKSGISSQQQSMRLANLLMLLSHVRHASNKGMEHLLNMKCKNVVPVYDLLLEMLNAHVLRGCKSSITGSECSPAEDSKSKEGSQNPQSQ
The following applies: cited from earlier work.

The conditions of data set [2]: cited from earlier work.
For a further data set, the system named is yeast cells. To be noted: cited from earlier work.
Setting [3] is: tested at 500 μg/ml, rat prostatic cytosol.
Where [4] appears, read: rat liver microsomes, read-out: *50% Inhibition (converted).

Entries after “also recorded” stand apart in the source; their conditions may differ. Read-outs that look alike come from different tables or passages of the source.

As a reminder, the inhibition is the share of the control response that was lost under treatment. Turning to `CC1(C)C=Cc2c(O)ccc(C3=Cc4ccc(O)cc4OC3)c2O1` [#1 Glabrene, Glabrene], in data set [1] (tested at 25 μg/ml), the “*hAG (agonist)” value was “Inactive” and the “*hAT (antagonist)” value was “Inactive”. The inhibition at 125 µg/mL at androgen receptor (AR) (tested at 125 μg/ml, rat prostatic cytosol, read-out: *Specific Binding % Inhibition) turned out to be 21%. Also, the “5-alpha-reductase inhibition, in words” value on 5-alpha-reductase is recorded as “significant 5ARI activity; also recorded: potent dihydrotestosterone reductase inhibitors”. Further, on 5-alpha-reductase (listed as #1), the “5-alpha-reductase inhibition, in words” value is reported as “interfere with the activity of 5-alpha-reductase”. For the same compound, the IC50 at 5-alpha-reductase (read-out: IC50 (5ARI) (converted)) was 15.5 µM.
As for `C=CC(C)(C)c1cc(/C=C/C(=O)c2ccc(O)cc2)c(OC)cc1O` [#5 Licochalcone A, Licochalcone A], in data set [1] (tested at 5 μg/ml), the “*hAG (agonist)” value was “Inactive”. Moreover, in data set [1] (tested at 5 μg/ml), the “*hAT (antagonist)” value was “Inactive”. Besides, the “*Specific Binding % Inhibition” value at androgen receptor (AR) (setting [3]) was 21%. Besides, the “5-alpha-reductase inhibition, in words” value at 5-alpha-reductase (listed as #5) was “interfere with the activity of 5-alpha-reductase”; on 5-alpha-reductase (listed as Licochalcone A) it was “potent dihydrotestosterone reductase inhibitors”; on 5-alpha-reductase (listed as licochalcone A), “significant 5ARI activity”. For the same compound, the “*50% Inhibition” value on 5-alpha-reductase (rat liver microsomes) was found to be 7 µg/mL.
Consider `C[C@@H](CC[C@@]1(O)O[C@H]2C[C@H]3[C@@H]4CC=C5C[C@@H](O[C@@H]6O[C@H](CO)[C@@H](O)[C@H](O[C@@H]7O[C@H](CO)[C@@H](O)[C@H](O)[C@H]7O)[C@H]6O[C@@H]6O[C@@H](C)[C@H](O)[C@@H](O)[C@H]6O)CC[C@]5(C)[C@H]4CC[C@]3(C)[C@H]2[C@@H]1C)CO[C@@H]1O[C@H](CO)[C@@H](O)[C@H](O)[C@H]1O` [#9 Protogracillin, Protogracillin], for which, in data set [1], the “hAR assay activity, in words” value was “testosterone agonist activity” and the “receptor affinity relative to cyproterone's binding affinity” value is recorded as 1/200. In data set [1] (tested at 100 μg/ml), the “*hAG (agonist)” value is “Active (2)” and the “*hAT (antagonist)” value is reported as “Inactive”. At androgen receptor (AR) (listed as Protogracillin), the “androgen receptor binding / interference with testosterone binding, in words” value (from here on “androgen receptor binding / interference”) is on record as “does not interfere with normal testosterone binding to receptor”. For the same compound, the “androgen receptor binding / interference” value on androgen receptor (AR) (listed as protogracillin) is given as “did not interfere with regular testosterone receptor binding”. Further, at androgen receptor (AR) (setting [3]), the “*Specific Binding % Inhibition” value turned out to be 0%. In addition, the “5-alpha-reductase inhibition, in words” value on 5-alpha-reductase was “did not inhibit 5AR”.
`CC1=CCC(C(C)(C)O)CC1` (stereo not drawn) [alpha-terpineol]: the “5-alpha-reductase inhibition, in words” value on 5-alpha-reductase is given as “significant 5ARI activity”.
Regarding “Leucoanthocyanidin [#6 Leucoanthocyanidin]”, in data set [1] (tested at 500 μg/ml), the “*hAG (agonist)” value is reported as “Clear”. Further, in data set [1] (tested at 500 μg/ml), the “*hAT (antagonist)” value is reported as “Clear”. Moreover, the “*Specific Binding % Inhibition” value on androgen receptor (AR) (setting [3]) is listed as 28%. For the same compound, the “5-alpha-reductase inhibition, in words” value at 5-alpha-reductase is recorded as “significant 5ARI activity”; on 5-alpha-reductase (listed as #6) it was “interfere with the activity of 5-alpha-reductase”. For the same compound, the “*50% Inhibition” value on 5-alpha-reductase (rat liver microsomes) was found to be 30 µg/mL.
With `CC(C)(C)NC(=O)[C@H]1CC[C@H]2[C@@H]3CC[C@H]4NC(=O)C=C[C@]4(C)[C@H]3CC[C@]12C` [Finasteride Proscar Control, Finasteride, reference compound], the IC50 at 5-alpha-reductase (positive control, read-out: IC50 (converted)) was around 0.188 µM; at 5-alpha-reductase (setting [4]), 0.188 µM.
Take `CC1(C)C=Cc2c(ccc3c2OC[C@@H](c2ccc(O)cc2O)C3)O1` [#4 Glabridin, Glabridin]: in data set [1] (tested at 5 μg/ml), the “*hAG (agonist)” value is reported as “Inactive” and the “*hAT (antagonist)” value is “Inactive”. Moreover, the “androgen receptor binding / interference” value on androgen receptor (AR) was “does not interfere with normal testosterone to androgen receptor binding”. In addition, the inhibition at 500 µg/mL at androgen receptor (AR) (tested at 500 μg/ml, rat prostatic cytosol, read-out: *Specific Binding % Inhibition) was determined as 0%. Besides, at 5-alpha-reductase, the “5-alpha-reductase inhibition, in words” value was “significant 5ARI activity; also recorded: potent dihydrotestosterone reductase inhibitors”. Besides, the “5-alpha-reductase inhibition, in words” value at 5-alpha-reductase (listed as #4) is reported as “interfere with the activity of 5-alpha-reductase”. For the same compound, on 5-alpha-reductase (setting [4]), the IC50 was 89.4 µM. The “estrogenic response (agonism), in words” value at ERα (1×10^−7 to 1×10^−4 M) is reported as “does not exert any estrogenic response”. Also, at ERα (at 6×10^−6 M, without being toxic towards yeast cells), the “inhibition of the E2 response” value is reported as around 80%. For the same compound, at ERα, the “ERα antagonism, in words” value is reported as “ERα-selective antagonist” and the “reduction of estrogenic E2” value is given as 80%. For the same compound, the “estrogenic response (agonism), in words” value at ERβ (1×10^−7 to 1×10^−4 M) is “does not exert any estrogenic response”. Moreover, the “ERβ antagonism, in words” value at ERβ is listed as “did not have antagonistic properties”. The “solubility in water, in words” value in data set [2] is “insoluble in water”. Besides, in the data set on yeast cells, the “concentration toxic to yeast cells” value is recorded as “above 1×10^−4 M”.
